Earlier results, collected in patent publication US12589095B2, “Unit dosage form for transmucosal drug delivery of an active pharmaceutical ingredient” (Primo Pharmatech LLC, priority 2019, dated 2026).
Where two headings read alike, the source gives them in different places.

Settings: known / published value, cited from earlier work

Row | Compound | HLB | also measured
1 | CCCCCCCC/C=C\CCCCCCCC(=O)O [Oleic acid] | 1.0 | HLB (listed as Oleic Acid): 1
2 | Polyethylene lauryl ether [Polyethylene lauryl ether (Brij 30)] | 8.6 | –
3 | CCCCCCCC/C=C\CCCCCCCC(=O)[O-].[Na+] [Sodium oleate] | 16.9 | –
4 | Polyoxyethylene lauryl ether [Polyoxyethylene lauryl ether (G-3705)] | 10.5 | –
5 | Polyoxyethylene monostearate [Polyoxyethylene monostearate (Myrj 45)] | 10.8 | –
6 | sorbitan monooleate [Span 80] | 4.3 | HLB (listed as Sorbitan mono-oleate (Span 80)): 3.8
7 | CCCCCCCCCCCCCCCCCC(=O)OCCOCCO [Diethylene glycol monostearate] | 4.3 | –
8 | CCCCCCCCCCCC(=O)OCCOCCO [Diethylene glycol monolaurate] | 5.5 | –
9 | Glyceryl dioleate | 1.8 | –
10 | CCCCCCCCCCCCCCCCCC(=O)OCC(O)CO (stereo not shown) [Glyceryl monostearate (Tegin), Glyceryl monostearate] | 4.7 | –
11 | Polyethylene glycol 400 monolaurate | 12.8 | –
12 | Sorbitan monolaurate [SPAN 20] | SPAN 20 (HLB8.6) | HLB (listed as Sorbitan monolaurate (Span 20)): 6.1
13 | CCCCCCCC/C=C\CCCCCCCC(=O)[O-].[K+] [Potassium oleate] | 18.0 | –
14 | CCCCCCCCCCCCCCCCCC(=O)OCC(O)CO (stereo not shown) [Glyceryl monostearate] | 2.1 | –
15 | Polyoxyethylene sorbitol wax derivative | 2.0 | –
16 | CCCCCCCC/C=C\CCCCCCCC(=O)OCC(O)CO (stereo not shown) [Glyceryl monooleate] | 3.4 | –
